Tests used:
Assay type in all cases: functional
SK-BR-3 = assay: Antiproliferative activity against estrogen receptor deficient human SKBR3 cells after 48 hrs by SRB assay; details: SK-BR-3, 48 h
[1] = Antiproliferative activity against human MCF7/BUS cells expressing estrogen receptor after 48 hrs by SRB assay
T47D = assay: Antiproliferative activity against human T47D cells expressing estrogen receptor after 48 hrs by SRB assay
MDA-MB-231 = assay: Antiproliferative activity against estrogen receptor deficient human MDA-MB-231 cells after 48 hrs by SRB assay; details: MDA-MB-231, 48 h
MCF7 = assay: Antiproliferative activity against human MCF7 cells expressing estrogen receptor after 48 hrs by SRB assay; details: MCF7, 48 h

| Compound | GI50 (SK-BR-3) | GI50 [1] | GI50 (T47D) | GI50 (MDA-MB-231) | GI50 (MCF7) |
| --- | --- | --- | --- | --- | --- |
| CCO[C@@]12C[C@H]3[C@@H](C[C@@H](O)[C@@]4(Cl)CC=CC(=O)[C@]34C)[C@@H]3CC[C@@](O)([C@H](C)[C@@H]([C@@H]4O[C@H](O)[C@@]5(C)O[C@@]45C)O1)[C@]32C | 3.4 µM | 5.1 µM | 13 µM | 10 µM | 3.9 µM |
| CO[C@@]12C[C@@H]3c4c(O)cccc4[C@H](O)C[C@H]3[C@@H]3CC[C@@](O)([C@H](C)[C@@H]([C@@H]4OC(=O)C(C)=C4C)O1)[C@]32C | > 100 µM | > 100 µM | > 100 µM | > 100 µM | > 100 µM |
| CC1=C(C)C(=O)O[C@@H]([C@](C)(O)[C@]2(O)CC[C@@]3(O)[C@@H]4C[C@H]5O[C@]56[C@@H](O)C=CC(=O)[C@]6(C)[C@H]4CC[C@]23C)C1 | 1.7 µM | 1.1 µM | 2.2 µM | 2.1 µM | 1 µM |
| CCO[C@@]12C[C@H]3[C@@H](C[C@@H](O)[C@@]4(Cl)CC=CC(=O)[C@]34C)[C@@H]3CC[C@@](O)([C@H](C)[C@@H]([C@@H]4OC(=O)C(C)=C4C)O1)[C@]32C [12-O-ETHYLJABOROSALACTONE 42] | 2.5 µM | 3 µM | 3.9 µM | 3.7 µM | 3 µM |
| CO[C@@]12C[C@H]3[C@@H](C[C@H]4O[C@]45CC=CC(=O)[C@]35C)[C@@H]3CC[C@@](O)([C@@H]([C@H]4CC(C)=C(C)C(=O)O4)CO1)[C@]32C [12-O-METHYLJABOROSALACTONE 38] | 2 µM | 2.7 µM | 3.9 µM | 2.8 µM | 2.9 µM |
| CC[C@@]1(O)C(=O)OCc2c1cc1n(c2=O)Cc2cc3ccccc3nc2-1 [CAMPTOTHECIN] | 0.15 µM | 0.21 µM | 2 µM | 1.3 µM | 0.28 µM |
| O=c1[nH]cc(F)c(=O)[nH]1 [FLUOROURACIL] | 3 µM | 6.2 µM | 47 µM | 54 µM | 8.3 µM |
| C[C@]12CC[C@H]3C(=C1[C@H]1C[C@@]2(O)[C@](C)([C@H]2C[C@]4(C)O[C@]4(C)[C@H](O)O2)C1)C[C@@H](O)[C@@]1(O)CC=CC(=O)[C@]31C [JABOROSALACTOL20] | > 100 µM | > 100 µM | > 100 µM | > 100 µM | > 100 µM |
| C[C@@H]1[C@@H]([C@@H]2O[C@H](O)[C@@]3(C)O[C@@]23C)O[C@@]2(O)C[C@H]3[C@@H](C[C@H]4O[C@]45CC=CC(=O)[C@]35C)[C@@H]3CC[C@]1(O)[C@]32C [JABOROSALACTOL 24] | 2.3 µM | 2.6 µM | 6.5 µM | 8.7 µM | 3.6 µM |
| C[C@@H]1[C@@H]([C@@H]2O[C@H](O)[C@@]3(C)O[C@@]23C)O[C@@]2(O)C[C@H]3[C@@H](CC=C4CC=CC(=O)[C@@]43C)[C@@H]3CC[C@]1(O)[C@]32C [JABOROSALACTOL] | 18 µM | 18 µM | 30 µM | 19 µM | 14 µM |
| CC1=C(C)[C@]2(OC1=O)C(=O)C(C)=C1CC[C@H]3[C@@H]4C[C@H]5O[C@]56CC=CC(=O)[C@]6(C)[C@H]4C[C@@]2(O)[C@]13C [JABOROSALACTONE 1] | 2 µM | 3.3 µM | 3.4 µM | 2.5 µM | 3.2 µM |
| CC1=C(C)C(=O)O[C@@H]([C@H]2CO[C@@]3(O)C[C@H]4[C@@H](C[C@H]5O[C@]56CCCC(=O)[C@]46C)[C@@H]4CC[C@]2(O)[C@]43C)C1 [JABOROSALACTONE 39] | 34 µM | 29 µM | 38 µM | 35 µM | 25 µM |
| CC1=C(C)[C@H]([C@H]2O[C@@]3(O)C[C@H]4[C@@H](C[C@@H](O)[C@@]5(Cl)CC=CC(=O)[C@]45C)[C@@H]4CC[C@@](O)([C@@H]2C)[C@]43C)OC1=O [JABOROSALACTONE 42] | 2.5 µM | 2.6 µM | 3.5 µM | 3.2 µM | 2.4 µM |
| CC1=C(C)[C@H]([C@H]2O[C@@]3(O)C[C@@H]4c5c(O)cccc5[C@H](O)C[C@H]4[C@@H]4CC[C@@](O)([C@@H]2C)[C@]43C)OC1=O [JABOROSALACTONE 45] | > 100 µM | > 100 µM | > 100 µM | > 100 µM | > 100 µM |
| CC1=C(C)C(=O)O[C@]2(C1)O[C@@]1(O)C[C@H]3[C@@H](C[C@H]4O[C@]45CC=CC(=O)[C@]35C)[C@@H]3CC[C@@](O)([C@@H]2C)[C@]31C [JABOROSALACTONE 46] | 2.5 µM | 2.9 µM | 3.7 µM | 3.5 µM | 2.8 µM |
| CC1=C(C)[C@]2(OC1=O)[C@H](O)[C@@H](C)[C@]1(O)CC[C@H]3[C@@H]4CC=C5CC=CC(=O)[C@]5(C)[C@H]4C[C@@]2(O)[C@@]31C [JABOROSALACTONE P] | 29 µM | 33 µM | 61 µM | 49 µM | 35 µM |
| CC1=C(C)C(=O)O[C@@H]([C@H]2CO[C@@]3(O)C[C@H]4[C@@H](C[C@H]5O[C@]56CC=CC(=O)[C@]46C)[C@@H]4CC[C@]2(O)[C@]43C)C1 [JABOROSALACTONE] | 2.6 µM | 2.8 µM | 4.1 µM | 3.4 µM | 2.9 µM |
| CC1=C(C)[C@H]([C@H]2O[C@@]3(O)C[C@H]4[C@@H](C[C@@H](O)[C@@]5(O)CC=CC(=O)[C@]45C)[C@@H]4CC[C@@](O)([C@@H]2C)[C@]43C)OC1=O [JABOROTETROL] | > 100 µM | > 100 µM | > 100 µM | > 100 µM | > 100 µM |
| C[C@@H](C1=CC(=O)[C@H]2[C@@H]3C[C@H]4O[C@]45CC=CC(=O)[C@]5(C)[C@H]3CC[C@]12C)C1C[C@]2(C)O[C@]2(C)[C@H](O)O1 (stereo not given in full) [SALPICHROLIDE D] | 21 µM | 13 µM | 17 µM | 21 µM | 22 µM |
| C[C@@H](c1cc(O)c2c(c1)CC[C@H]1[C@H]2C[C@@H]2O[C@@]23CC=CC(=O)[C@]13C)[C@@H]1C[C@@H]2O[C@@H]2[C@H](O)O1 [SALPICHROLIDE G] | 3.4 µM | 5.7 µM | 14 µM | 14 µM | 5.1 µM |
| CC1=C(C)[C@H]([C@H]2O[C@@]3(O)C[C@H]4[C@@H](C[C@H]5O[C@]56CC=CC(=O)[C@]46C)[C@@H]4CC[C@@](O)([C@@H]2C)[C@]43C)OC1=O [TRECHONOLIDE A] | 1.9 µM | 3.1 µM | 4.3 µM | 6.3 µM | 3.9 µM |
| CC1=C(C)C(=O)O[C@@H]([C@](C)(O)[C@]2(O)CC[C@@]3(O)[C@@H]4C[C@H]5O[C@]56CC=CC(=O)[C@]6(C)[C@H]4CC[C@]23C)C1 [WITHANOLIDE E] | 0.71 µM | 0.42 µM | 0.16 µM | 0.24 µM | 0.31 µM |

From ChEMBL document CHEMBL1157815, “Antiproliferative activity of withanolides against human breast cancer cell lines” (2010)
